Drawing on patent publication US12552813B2, “Heterocyclic substituted pyrimidopyran compound and use thereof” (Medshine Discovery Inc., priority 2023, dated 2026), this text covers IC50 for one compound.

Holding throughout (format): cell-based
The subject of assay [1] is SW620 (KRAS G12V mutant) cell line. Put plainly: SW620 cell in vitro proliferation assay. Particulars: Homo sapiens, SW-620, 240 h, 1,000 cells per well, 10 days incubation, 3D CellTiter-Glo. How it is done: RPMI1640 medium, penicillin/streptomycin antibiotics from Gibco, and fetal bovine serum from Hyclone. 3D CellTiter-Glo (cell viability chemiluminescent assay) reagent from Promega. SW620 (KRAS G12V mutant) cell line from ATCC, Envision Multilabel analyzer (PerkinElmer).
The cells were seeded in a 96-well, ultra-low adsorption U-plate, at a density of 80 μL of cell suspension per well containing 1,000 cells. The cell plate was incubated overnight in a carbon dioxide incubator.
The compound to be tested was diluted using a multi-channel pipette by 5 times for 8 concentrations, that was, from 2 mM to 25.6 nM, and double replicates were set up. 78 μL of medium was added to an intermediate plate. Then the gradient-diluted compound was transferred to the intermediate plate at a density of 2 μL per well according to the corresponding position, mixed and transferred at a density of 20 μL per well to a cell plate. […] Another cell plate was prepared, and the signal value read on the day of addition was taken as the maximum value (the Max value in the equation below) to be used in data analysis.
A cell viability chemiluminescent assay reagent was added to the cell plate at a density of 100 μL per well and incubated at room temperature for 30 min to stabilize luminous signals. The readings are taken using a multilabel analyzer. […]
Background: ATP-based viability assays read luminescence as a measure of living cells.

Assay [2] has as its system KRAS^G12V mutant H727 cells. The assay can be described thus: H727 cell proliferation assay (3D-CTG method). Conditions: Homo sapiens, NCI-H727, 168 h, 2,000 cells per well, 7 days incubation. The method, then:
H727 cells from ATCC; RPMI-1640 medium from ATCC; fetal bovine serum from Ausgenex; CellTiter-Glo® 3D assay kit (3D-CTG) from Promega; and CellCarrier-96 Spheroid ULA/CS from PE.
5) The aforementioned cells were seeded in a transparent 96-well cell culture plate, at a density of 195 μL of cell suspension per well containing 2,000 cells.
6) The compound to be tested was diluted with 100% DMSO to 10 mM as the 1st concentration and then diluted 5 times by a pipette to the 8th concentration, i.e. from 10 mM to 0.13 μM. 2 μL of the gradient-diluted compound was added to 48 μL of cell medium for secondary dilution. After mixed, 5 μL of the secondary-diluted compound was added to the corresponding wells of the cell plate containing 195 μL of cells. […]
7) After incubation, 100 μL of cell supernatant was discarded and 3D-CTG was added at a density of 60 μL per well. […] 8) 100 μL of supernatant was pipetted from the well plate and transferred to a 96-well black plate with a clear bottom, and the luminescence was read in the BMG.
The original data was converted into the inhibition rate using equation Inhibition %=(Ave_H−Sample)/(Ave_H−Ave_L), and the IC50 value was obtained by curve fitting through four parameters (log(inhibitor) vs. response—Variable slope mode in GraphPad Prism). • H well: Reading of DMSO well • L well: Reading of Medium 5. […]

Assay [3] deals with KRAS^G12D mutant AsPC-1 cells. Put plainly: AsPC-1 cell proliferation assay (3D-CTG method). Conditions: Homo sapiens, ASPC1, 168 h, Experimental Example 2, 2,000 cells per well, 7 days incubation.
Experimental: 1) ASPC-1 cells were seeded in a transparent 96-well cell culture plate, at a density of 195 μL of cell suspension per well containing 2,000 cells.
2) The compound to be tested was diluted with 100% DMSO to 10 mM as the 1st concentration and then diluted 5 times by a pipette to the 8th concentration, i.e. from 10 mM to 0.13 M. 2 μL of the gradient-diluted compound was added to 48 μL of cell medium for secondary dilution. After mixed, 5 μL of the secondary-diluted compound was added to the corresponding wells of the cell plate containing 195 μL of cells. The cell plate was put into a carbon dioxide incubator and incubated for 7 days.
3) After incubation, 100 μL of cell supernatant was discarded and 3D-CTG was added at a density of 60 μL per well. The cells were shaken and incubated at room temperature and 200 rpm for 20 min, and incubated in an incubator at room temperature for 1 h.
4) 100 μL of supernatant was pipetted from the well plate and transferred to a 96-well black plate with a clear bottom, and the luminescence was read in the BMG.
The original data was converted into the inhibition rate using equation Inhibition %=(Ave_H−Sample)/(Ave_H−Ave_L), and the IC50 value was obtained by curve fitting through four parameters (log(inhibitor) vs. response—Variable slope mode in GraphPad Prism). • H well: Reading of DM well • L well: Reading of Medium 5.
The subject of assay [4] is KRAS^G12D mutant tumor cell line AsPC-1. The assay can be described thus: Antiproliferative effects of compounds in tumor cell line AsPC-1 (CellTiter-Glo 3D). Conditions: Homo sapiens, ASPC1, Experimental Example 1, 7,000 cells per well, ULA plate, 120 h incubation. The method, then:
The experiment studies the antiproliferative effects of compounds by detecting the effects of the compounds on in vitro cell activity of the KRAS^G12D mutant tumor cell line AsPC-1.
The cell line was AsPC-1. The tumor type was pancreatic cancer. The cell line was cultured by adherent growth using RPMI 1640+10% FBS. • Ultra Low Cluster-96-well plate (Corning-7007) • Greiner CELLSTAR 96-well plate (#655090) • Promega CellTiter-Glo 3D luminescence cell activity assay kit (Promega-G9683) • 2104-10 EnVision reader, PerkinElmer • RPMI 1640, DMEM, PBS (phosphate buffer), FBS (fetal bovine serum), Antibiotic-antimycotic, L-glutamine, and DMSO (dimethyl sulfoxide)
The tumor cell line was incubated in an incubator at 37° C., 5% CO2 under the culture conditions shown by the culture method. Regular passage was conducted, and the cells in the logarithmic growth phase were taken for seeding.
The cell line was AsPC-1, with a density of 7,000 cells (per well).
A cell suspension is added at a density of 135 μL per well to a ULA culture plate, and the same volume of cell-free medium is added to a blank control plate.
The ULA culture plate was centrifuged at room temperature for 10 min at 1,000 rpm immediately after seeding. Caution: Always handle follow-up actions with care after centrifuging to avoid unnecessary shaking. […]
The luminous signals were detected on a 2104 EnVision reader. […]

As for `C=C1CN2CCC[C@]2(COc2nc3c(c(N4CCCn5nc(C(=O)N(C)C)cc5C4)n2)CO[C@@H](c2c(F)c(N)cc(C#CC)c2C(F)(F)F)C3)C1` (single isomer, unassigned) [Compound 5A], the half-maximal inhibitory concentration (IC50) in assay [1] is 27.5 nM; in assay [2], 45.9 nM; in assay [3] it was 11.8 nM; in assay [4], 6.1 nM.

In general, IC50 refers to the point on the concentration scale where inhibition reaches its midpoint.
